Patent publication US20230017045A1, “PYRIDINE AND PYRIMIDINE CARBOXYLATE HERBICIDES AND METHODS OF USE THEREOF” (Dow AgroSciences LLC, priority 2017, published 2023)

test system: test plant species; experiment: Post-emergent herbicidal activity test (greenhouse, foliar spray, visual growth reduction); format: in vivo; conditions: post-emergence, 336 h, ECHCG: barnyardgrass (Echinochloa crus-galli), 140 g ai/ha, 14 days after application, read-out: Visual Growth Reduction (%) 14 Days After Application, ECHCG
Procedure, shortened: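 Plants grown in greenhouse (15 h photoperiod, 23-29° C day/22-28° C night) to first or second true leaf stage were sprayed overhead with compound in acetone/water/isopropanol/DMSO/crop oil/X-77 carrier at 187 L/ha. Injury was scored visually after 14 d on a 0-100% scale versus solvent-blank and untreated controls.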

Q: How did the pest or weed control at 140 g/ha turn out when `COC(=O)c1nc(-c2ccc(C#N)cc2F)c(F)cc1Cl` [F378, Methyl 3-chloro-6-(4-cyano-2-fluorophenyl)-5-fluoropicolinate] was run?
A: 0 to 29%

Q: For `COC(=O)c1nc(-c2ccc(Cl)c(CF)c2F)ccc1Cl` [F274, Methyl 3-chloro-6-(4-chloro-2-fluoro-3-(fluoromethyl)phenyl) picolinate], which pest or weed control at 140 g/ha is on record?
A: 0 to 29%

same assay, conditions: post-emergence, 336 h, IPOHE: ivy-leaf morning glory (Ipomoea hederacea), 140 g ai/ha, 14 days after application, read-out: Visual Growth Reduction (%) 14 Days After Application, IPOHE

Q: `COC(=O)c1nc(-c2ccc(C#N)cc2F)c(F)cc1Cl` [F378, Methyl 3-chloro-6-(4-cyano-2-fluorophenyl)-5-fluoropicolinate] was tested. Which pest or weed control at 140 g/ha did it give?
A: 95 to 100%

Q: How did the pest or weed control at 140 g/ha turn out when `COC(=O)c1nc(-c2ccc(Cl)c(CF)c2F)ccc1Cl` [F274, Methyl 3-chloro-6-(4-chloro-2-fluoro-3-(fluoromethyl)phenyl) picolinate] was run?
A: 0 to 29%

same assay, conditions: post-emergence, 336 h, KCHSC: kochia (Bassia scoparia), 140 g ai/ha, 14 days after application, read-out: Visual Growth Reduction (%) 14 Days After Application, KCHSC

Q: How did the pest or weed control at 140 g/ha turn out when `COC(=O)c1nc(-c2ccc(C#N)cc2F)c(F)cc1Cl` [F378, Methyl 3-chloro-6-(4-cyano-2-fluorophenyl)-5-fluoropicolinate] was run?
A: 45 to 59%

Q: Which pest or weed control at 140 g/ha does the source give for `COC(=O)c1nc(-c2ccc(Cl)c(CF)c2F)ccc1Cl` [F274, Methyl 3-chloro-6-(4-chloro-2-fluoro-3-(fluoromethyl)phenyl) picolinate] here?
A: 0 to 29%

same assay, conditions: post-emergence, 336 h, ORYSA: rice (Oryza sativa), 140 g ai/ha, 14 days after application, read-out: Visual Growth Reduction (%) 14 Days After Application, ORYSA

Q: For `COC(=O)c1nc(-c2ccc(C#N)cc2F)c(F)cc1Cl` [F378, Methyl 3-chloro-6-(4-cyano-2-fluorophenyl)-5-fluoropicolinate], which pest or weed control at 140 g/ha is on record?
A: 0 to 29%

Q: With `COC(=O)c1nc(-c2ccc(Cl)c(CF)c2F)ccc1Cl` [F274, Methyl 3-chloro-6-(4-chloro-2-fluoro-3-(fluoromethyl)phenyl) picolinate] as the compound, how does the pest or weed control at 140 g/ha read?
A: 0 to 29%

same assay, conditions: post-emergence, 336 h, SETFA: giant foxtail (Setaria faberi), 140 g ai/ha, 14 days after application, read-out: Visual Growth Reduction (%) 14 Days After Application, SETFA

Q: `COC(=O)c1nc(-c2ccc(C#N)cc2F)c(F)cc1Cl` [F378, Methyl 3-chloro-6-(4-cyano-2-fluorophenyl)-5-fluoropicolinate] was tested. Which pest or weed control at 140 g/ha did it give?
A: 60 to 74%

Q: How did the pest or weed control at 140 g/ha turn out when `COC(=O)c1nc(-c2ccc(Cl)c(CF)c2F)ccc1Cl` [F274, Methyl 3-chloro-6-(4-chloro-2-fluoro-3-(fluoromethyl)phenyl) picolinate] was run?
A: 0 to 29%

same assay, conditions: post-emergence, 336 h, SORVU: grain sorghum (Sorghum vulgare), 140 g ai/ha, 14 days after application, read-out: Visual Growth Reduction (%) 14 Days After Application, SORVU

Q: With `COC(=O)c1nc(-c2ccc(C#N)cc2F)c(F)cc1Cl` [F378, Methyl 3-chloro-6-(4-cyano-2-fluorophenyl)-5-fluoropicolinate] as the compound, how does the pest or weed control at 140 g/ha read?
A: 75 to 84%

Q: For `COC(=O)c1nc(-c2ccc(Cl)c(CF)c2F)ccc1Cl` [F274, Methyl 3-chloro-6-(4-chloro-2-fluoro-3-(fluoromethyl)phenyl) picolinate], which pest or weed control at 140 g/ha is on record?
A: 0 to 29%

same assay, conditions: post-emergence, 336 h, STEME: common chickweed (Stellaria media), 140 g ai/ha, 14 days after application, read-out: Visual Growth Reduction (%) 14 Days After Application, STEME

Q: How did the pest or weed control at 140 g/ha turn out when `COC(=O)c1nc(-c2ccc(C#N)cc2F)c(F)cc1Cl` [F378, Methyl 3-chloro-6-(4-cyano-2-fluorophenyl)-5-fluoropicolinate] was run?
A: 0 to 29%

Q: For `COC(=O)c1nc(-c2ccc(Cl)c(CF)c2F)ccc1Cl` [F274, Methyl 3-chloro-6-(4-chloro-2-fluoro-3-(fluoromethyl)phenyl) picolinate], which pest or weed control at 140 g/ha is on record?
A: 0 to 29%

same assay, conditions: post-emergence, 336 h, TRZAS: wheat, spring (Triticum aestivum), 140 g ai/ha, 14 days after application, read-out: Visual Growth Reduction (%) 14 Days After Application, TRZAS

Q: How did the pest or weed control at 140 g/ha turn out when `COC(=O)c1nc(-c2ccc(C#N)cc2F)c(F)cc1Cl` [F378, Methyl 3-chloro-6-(4-cyano-2-fluorophenyl)-5-fluoropicolinate] was run?
A: 0 to 29%

Q: Which pest or weed control at 140 g/ha does the source give for `COC(=O)c1nc(-c2ccc(Cl)c(CF)c2F)ccc1Cl` [F274, Methyl 3-chloro-6-(4-chloro-2-fluoro-3-(fluoromethyl)phenyl) picolinate] here?
A: 0 to 29%

same assay, conditions: post-emergence, 336 h, blackgrass (Alopecurus myosuroides), 14 Days After Application, 140 g ai/ha, read-out: Visual Growth Reduction (%) ALOMY

Q: With `COC(=O)c1nc(-c2ccc(C#N)cc2F)c(F)cc1Cl` [F378, Methyl 3-chloro-6-(4-cyano-2-fluorophenyl)-5-fluoropicolinate] as the compound, how does the pest or weed control at 140 g/ha read?
A: 0 to 29%

Q: With `COC(=O)c1nc(-c2ccc(Cl)c(CF)c2F)ccc1Cl` [F274, Methyl 3-chloro-6-(4-chloro-2-fluoro-3-(fluoromethyl)phenyl) picolinate] as the compound, how does the pest or weed control at 140 g/ha read?
A: 0 to 29%

same assay, conditions: post-emergence, 336 h, canada thistle (Cirsium arvense), 14 Days After Application, 140 g ai/ha, read-out: Visual Growth Reduction (%) CIRAR

Q: `COC(=O)c1nc(-c2ccc(C#N)cc2F)c(F)cc1Cl` [F378, Methyl 3-chloro-6-(4-cyano-2-fluorophenyl)-5-fluoropicolinate] was tested. Which pest or weed control at 140 g/ha did it give?
A: 45 to 59%

Q: How did the pest or weed control at 140 g/ha turn out when `COC(=O)c1nc(-c2ccc(Cl)c(CF)c2F)ccc1Cl` [F274, Methyl 3-chloro-6-(4-chloro-2-fluoro-3-(fluoromethyl)phenyl) picolinate] was run?
A: 60 to 74%

same assay, conditions: post-emergence, 336 h, crabgrass (Digitaria sanguinalis), 14 Days After Application, 140 g ai/ha, read-out: Visual Growth Reduction (%) DIGSA

Q: For `COC(=O)c1nc(-c2ccc(C#N)cc2F)c(F)cc1Cl` [F378, Methyl 3-chloro-6-(4-cyano-2-fluorophenyl)-5-fluoropicolinate], which pest or weed control at 140 g/ha is on record?
A: 60 to 74%

Q: `COC(=O)c1nc(-c2ccc(Cl)c(CF)c2F)ccc1Cl` [F274, Methyl 3-chloro-6-(4-chloro-2-fluoro-3-(fluoromethyl)phenyl) picolinate] was tested. Which pest or weed control at 140 g/ha did it give?
A: 0 to 29%

same assay, conditions: post-emergence, 336 h, lambsquarters (Chenopodium album), 14 Days After Application, 140 g ai/ha, read-out: Visual Growth Reduction (%) CHEAL

Q: With `COC(=O)c1nc(-c2ccc(C#N)cc2F)c(F)cc1Cl` [F378, Methyl 3-chloro-6-(4-cyano-2-fluorophenyl)-5-fluoropicolinate] as the compound, how does the pest or weed control at 140 g/ha read?
A: 75 to 84%

Q: How did the pest or weed control at 140 g/ha turn out when `COC(=O)c1nc(-c2ccc(Cl)c(CF)c2F)ccc1Cl` [F274, Methyl 3-chloro-6-(4-chloro-2-fluoro-3-(fluoromethyl)phenyl) picolinate] was run?
A: 0 to 29%

same assay, conditions: post-emergence, 336 h, redroot pigweed (Amaranthus retroflexus), 14 Days After Application, 140 g ai/ha, read-out: Visual Growth Reduction (%) AMARE

Q: `COC(=O)c1nc(-c2ccc(C#N)cc2F)c(F)cc1Cl` [F378, Methyl 3-chloro-6-(4-cyano-2-fluorophenyl)-5-fluoropicolinate] was tested. Which pest or weed control at 140 g/ha did it give?
A: 45 to 59%

Q: How did the pest or weed control at 140 g/ha turn out when `COC(=O)c1nc(-c2ccc(Cl)c(CF)c2F)ccc1Cl` [F274, Methyl 3-chloro-6-(4-chloro-2-fluoro-3-(fluoromethyl)phenyl) picolinate] was run?
A: 0 to 29%

same assay, conditions: post-emergence, 336 h, wild oat (Avena fatua), 14 Days After Application, 140 g ai/ha, read-out: Visual Growth Reduction (%) AVEFA

Q: For `COC(=O)c1nc(-c2ccc(C#N)cc2F)c(F)cc1Cl` [F378, Methyl 3-chloro-6-(4-cyano-2-fluorophenyl)-5-fluoropicolinate], which pest or weed control at 140 g/ha is on record?
A: 0 to 29%

Q: Which pest or weed control at 140 g/ha does the source give for `COC(=O)c1nc(-c2ccc(Cl)c(CF)c2F)ccc1Cl` [F274, Methyl 3-chloro-6-(4-chloro-2-fluoro-3-(fluoromethyl)phenyl) picolinate] here?
A: 0 to 29%

same assay, conditions: post-emergence, 336 h, yellow nutsedge (Cyperus esculentus), 14 Days After Application, 140 g ai/ha, read-out: Visual Growth Reduction (%) CYPES

Q: How did the pest or weed control at 140 g/ha turn out when `COC(=O)c1nc(-c2ccc(C#N)cc2F)c(F)cc1Cl` [F378, Methyl 3-chloro-6-(4-cyano-2-fluorophenyl)-5-fluoropicolinate] was run?
A: 0 to 29%

Q: For `COC(=O)c1nc(-c2ccc(Cl)c(CF)c2F)ccc1Cl` [F274, Methyl 3-chloro-6-(4-chloro-2-fluoro-3-(fluoromethyl)phenyl) picolinate], which pest or weed control at 140 g/ha is on record?
A: 0 to 29%
